One experiment concerns A431 cells. Nature of the experiment: Spheroid formation assay, A431 cells. Type of experiment: cell-based, human. Conditions: 20 μM, 48 h on day 8 spheroids. The method, then:
In (A), it is shown that A431-derived ECS cells have elevated TG2 and mesenchymal markers. A431 cells (40,000 cells/well) were grown in spheroid media in monolayer conditions or as non-attached spheroids (ECS cells) for 10 d. Cells were harvested and lysates prepared for immunoblot. In (B), A431 cells were electroporated with 3 μg of control- or TG2-siRNA and at 72 h extracts were prepared to assay TG2 and EMT marker level. In (C), A431-derived ECS cells were electroporated with 3 μg of the indicated siRNA and then grown as spheroids for 96 h. […] In (D), A431 cells (500,000 cells/well) were plated in monolayer culture in spheroid media in 100 mm dishes. The following day, at time zero, 0 or 20 μM NC9 was added with fresh addition of medium and NC9 at 24 h. At 48 h the cells were harvested and extracts prepared for immunoblot. In (E), A431 cells were pretreated in 0 or 20 μM NC9 for 2 h and then harvested and 25,000 cells were seeded in the upper chamber above a matrigel-coated membrane in 1 mL of growth medium containing 1% FCS in a Millicell chamber. […] Confluent monolayers were then scratched with a 10-μL pipette tip, rinsed, and width of the wound was monitored for 0-14 h.
Spheroid formation assay. […] Spheroid size and number was monitored with time in culture as previously described (Adhikary, G. et al., PLoS One 8:e84324, 2013).

The subject of a further experiment is NFκB. Put plainly: NFκB subcellular distribution (cell fractionation, immunoblot), ECS cells. The format is cell-based, human. Conditions: 8 day spheroids, 20 μM, 48 h. The method, then: In (A), it is shown that ECS cells have reduced NFκB-p65 levels. SCC-13 cells (40,000) were grown in spheroid medium in attached (monolayer) and non-attached (spheroid, ECS cells) conditions. Lysates were prepared after 10 d in culture for electrophoresis and detection of indicated epitopes. In (B). […] and SCC13-TG2-shRNA2 cells were grown in spheroid medium as monolayers. After 10 d in culture, lysates were collected for detection of TG2 and NFκB-p65. In (C), SCC-13 cells were electroporated with control-, NFκB-p65- or TG2-siRNA and then cultured as monolayers in spheroid medium. After 72 h extracts were prepared to assay TG2, NFκB-p65 and EMT markers. In (D), SCC-13 cells were electroporated with empty vector Control- or TG2-siRNA and plated in monolayer culture. The following day cells were fixed, permeabilized and incubated with antibodies specific for the indicated epitopes. […] In (E), an equal number of cell equivalents of total (T), nuclear (N), and cytosolic (C) extract, prepared from SCC13-Control-shRNA and SCC13-TG2-shRNA2 (TG2 knockdown) cells, was electrophoresed for immunoblot detection of NFκB, histone 3 (nuclear marker) and β-actin (cytoplasmic marker). […] In (F), total (T), nuclear (N), and cytosolic (C) extract was prepared from 8 day spheroids (ECS cells) treated with 0 or 20 μM NC9 for 48 h. […]
A general note: A western blot detects proteins with antibodies after separation by electrophoresis.

`C=CC(=O)NCCCC[C@H](NC(=O)OCc1ccccc1)C(=O)NCCOCCOCCNS(=O)(=O)c1cccc2c(N(C)C)cccc12` [NC9]: the spheroid formation result with A431 cells is “reduced spheroid formation”. Besides, the “cytoplasmic/nuclear distribution of NFκB” value in the experiment on NFκB is recorded as “not altered”.
